# In US20140127136A1, “LIPOSOMES USEFUL FOR DRUG DELIVERY TO THE BRAIN” (Merrimack Pharmaceuticals, Inc., priority 2004, published 2014):
# Several values for one entry are separate records, joined by “and”; a condition that tells them apart may be missing. Equal values may be shown once. Where a name gives a salt, the structure may show the parent alone. Read-outs that look alike come from different tables or passages of the source.
# Experiments:
# [1] = system: MCF-7 human breast cancer cells with low EGFR expression; test: Cytotoxicity of free, liposomal and anti-EGFR-immunoliposomal 6-APE; assay type: cell-based; details: 6 hours exposure, 3 days post-incubation
# [2] = system: HER2-overexpressing human breast carcinoma cells (BT-474); test: MTT cytotoxicity of 6-APE formulations; details: 6 hours exposure, 3 days post-incubation
# [3] = system: MDA-MB-468 EGFR-overexpressing human breast cancer cells; test: Cytotoxicity of free, liposomal and anti-EGFR-immunoliposomal 6-APE; assay type: cell-based; details: 6 hours exposure, 3 days post-incubation
# [4] = cited from earlier work; for pKa: aqueous solution, ambient temperature, conjugated amine base, value (I) where two are given
# [5] = system: human breast carcinoma BT-474 xenografts; test: Antitumor efficacy of CPT-11 liposomes (TEA-Pn) against breast cancer xenografts in nude mice; assay type: in vivo, NCR nu/nu mice; details: 50 mg CPT-11/kg i.v. on days 14, 18, 21, 25
# in vivo [6] = details: Sprague-Dawley, rat, brain, other: CED infusion into the brain, 0.06 mg
# [7] = system: subcutaneous xenografts of human colon carcinoma (HT-29); test: Antitumor activity of free and liposomal CPT-11 against HT-29 xenografts; assay type: in vivo, NCR nu/nu athymic nude mice; details: 50 mg/kg per injection
# [8] = Toxicity of free and liposomal irinotecan following CED delivery into the brain; assay type: in vivo, rats; details: for brain tissue toxicity 60 days after CED: single 20 μl CED infusion
# Protocol: Ls-CPT-11 was prepared and the CED procedure used were described in Example 68. To evaluate toxicity, healthy rats received a single infusion of free, i.e., dissolved, or Ls-CPT-11 via CED. […] Rats were euthanized 60 days after CED treatments, and their brains were harvested, sectioned and stained for standard pathology xamination.
# No systemic toxicities, including weight loss or diarrhea, were observed following CED of any of the treatments. Furthermore, no gross neurologic or behavioral changes were noted post-treatment. Indeed, no dose-limiting toxicities for nanoliposomal CPT-11 were identified up to 1.6 mg/rat in a single 0.02 mL infusion, which represented the highest dose achieved without further concentrationg the liposomal sample.
# [9] = Pharmacokinetics of irinotecan formulations administered by CED into normal brain tissue; details: 3 mg/ml
# orthotopic U87 tumors = details: 60 μg (3 mg/ml), single CED 5 d after implantation
# [10] = MTD seeking study of CPT-11 formulations, single i.v. injection; assay type: in vivo, Swiss Webster mice
# [11] = mouse, 0.1 mg/ml
# [12] = Stability and plasma pharmacokinetics of liposomal and F5-immunoliposomal Topotecan in mice; assay type: in vivo, Swiss Webster mice; details: mouse plasma, 1 hour post i.v. injection, 5 mg/kg
# Protocol: Topotecan liposomes containing radioactive lipid label [^3H]-CHE at 1.5 mCi/mmol of phospholipid were prepared according to Examples 11 and 19 using an ethanol lipid solution mixing-extrusion procedure under the following conditions: gradient-forming salt solution: 0.643 N triethylammonium sucrose octasulfate; polycarbonate membrane extrusion: 15 passages through 2 stacked PCTE filters, 80 nm pore size; Topotecan loading: drug/phospholipid input ratio 350 mg/mmol (calculated for Topotecan free base); F5 scFv conjugation was performed as described in Example 19. The liposomes had the following characteristics:
# The study was performed generally as in Example 22. […] At 1 hour, 8 hour, or 24 hour post injection time points, 3 animals per time point were exsanguinated via open heart punction under Ketamine/Xylazine anesthesia, the blood was collected into tubes containing PBS-EDTA, and assayed for Topotecan (fluorometry) and liposome lipid (by radioactivity scintillation counting). […] The amount of drug remaining encapsulated in the liposomes at each time point was calculated for each animal individually by comparing drug/lipid radioactivity ratio of the plasma samples with that of the injected liposomes. […]
# [13] = Animal body weights in the BT-474 Topotecan MTD-fraction study; assay type: in vivo, nude mice; details: at MTD, i.v. at day 19, 23, 27
# Description: The control group received injections of physiological saline. […] There was no significant difference in efficacy between free and liposomal drug given at their respective MTD or at identical fractions (½, ¼, or ⅛) thereof.
# [14] = Brain tissue pharmacokinetics of free and liposomal topotecan delivered by CED
# [15] = system: U87MG intracranial glioblastoma xenograft; test: Therapeutic efficacy of liposomal topotecan by CED against intracranial glioma xenografts; assay type: in vivo, athymic rats; details: CED 20 μl, 0.5 mg/ml, 7 days after tumor implantation
# Protocol: Twenty one athymic rats received the implantation of U87MG tumor cells (5×10^5 cells/10 μl HBSS) into their right striatum and were divided randomly into three groups. Under deep isofluorane anesthesia, rats were placed in a small-animal stereotaxic frame (David Kopf Instruments, Tujunga, Calif.). […] After 2 min, another 5 μl was injected at a depth of 4 mm. After an additional 2 min, the needle was removed and the wound was closed with sutures.
# All control rats and rats treated with free TPT developed neurological symptoms around day 17-26 due to large intracranial tumors that were confirmed by histology.
# To evaluate the treatment of larger tumors, the U87MG intracranial model was developed in 12 rats. However, in this experiment CED was performed 12 days after tumor implantation (FIG. 48B). […] Therefore, to achieve proper coverage of the tumor, there is the need for guided and image-monitored administration of the liposomal drug.
# SKBr-3 cells = test: MTT cytotoxicity of Topotecan formulations (TEA-Pn); assay type: cell-based; details: Homo sapiens, SK-BR-3, read-out: IC50 (drug dose resulting in 50% growth inhibition), 4-6 hours exposure, 4 days post-incubation
# in vivo [16] = details: Sprague-Dawley, rat, brain, other: CED infusion into the brain, 0.01 mg
# [17] = Maximum tolerated dose of free and liposomal Topotecan, 3 weekly i.v. injections; details: female, Swiss-Webster, mouse, in vivo, iv
# [18] = system: subcutaneous xenograft tumors of BT-474 human breast carcinoma; test: Antitumor efficacy of non-targeted and HER2-targeted liposomal vincristine; assay type: in vivo, nude mice; details: 2 mg VCR/kg weekly i.v. for three weeks
# [19] = system: HT-29 human colon carcinoma xenografts; details: 5 mg/kg i.v. every three days, four injections
# [20] = system: HER2-overexpressing human non-small cell lung carcinoma cells CaLu-3; details: MTT
# [21] = LD50 of triethylammonium sulfate compared with doxorubicin; details: in vivo
# [22] = inj. dose 60 mg/kg, single i.v., individual mice, hydrochloride, 60 mg/kg
# [23] = inj. dose 70 mg/kg, single i.v., individual mice, hydrochloride, 70 mg/kg
# [24] = inj. dose 80 mg/kg, single i.v., individual mice, hydrochloride, 80 mg/kg
# [25] = rat brain tissue, CED 20 μl, 0.5 mg/ml
molecule,measurement,setting,value
6-(3-aminopropyl)ellipticine [free APE],IC50,[1],about 0.5 μg/ml
same,IC50,[2],0.26 μg APE/ml
same,IC50,[3],about 0.1 μg/ml
CC(C)(N)CO [2-amino-2-methylpropanol],pKa,[4],9.69
CC(C)N [Isopropylamine],pKa,[4],10.53
"CN1CCN(C)CC1 [N,N′-dimethylpiperazine]",pKa,[4],9.66
same,pKa (II),[4]; second ammonium group,5.2
OCCN1CCOCC1 [N-hydroxyethylmorpholine],pKa,[4],7.39
OCCN1CCCC1 [N-hyrdoxyethylpyrrolidine],pKa,[4],9.44
CN1CCCCC1 [N-methylpiperidine],pKa,[4],10.38
NC1CCCCC1 [cyclohexylamine],pKa,[4],10.66
C1CCC(NC2CCCCC2)CC1 [dicyclohexylamine],pKa,[4],10.4
CCN(C)CC [diethylmethylamine],pKa,[4],10.35
CCCN(C)C [dimethylpropylamine],pKa,[4],10.15
"CCc1c2c(nc3ccc(OC(=O)N4CCC(N5CCCCC5)CC4)cc13)-c1cc3c(c(=O)n1C2)COC(=O)[C@]3(O)CC [free CPT-11, Irinotecan hydrochloride]",average tumor size at day 46,[5],"about 1,000 mm^3"
same,effect on tumor growth,[5],reduced the rate of tumor growth
same,MRT,in vivo [6],9.6 h
same,animals tumor-free at the end of study without signs of regrowth,[7],no animals without tumor regrowth
same,effect on the tumor growth,[7],only minor effect on the tumor growth
same,Average tumor doubling time,[7]; 4 i.v. injections at intervals of 4 days,4.8 days
same,brain tissue toxicity 60 days after CED,[8]; 60 μg,no apparent tissue toxicity
same,brain tissue toxicity 60 days after CED,[8]; 0.4 mg/rat,extensive tissue necrosis within the CNS
same,highest tolerable dose,[8]; CED into rat brain,60 μg/infusion
same,AUC∞,[9],16.4 µg·days/g
same,Median survival,orthotopic U87 tumors,28.5 days
same,MTD at 7 days,"[10]; Swiss Webster, mouse, in vivo, iv, acute, single i.v. injection, mice",80 mg/kg
same,Animal body weight at day 1 post injection,[10]; [22],20.4 g and 19.1 g and 20.0 g and 18.7 g
same,Animal body weight at day 2 post injection,[10]; [22],20.9 g and 19.4 g
same,Animal body weight at day 4 post injection,[10]; [22],22.1 g and 20.2 g
same,Animal body weight at day 6 post injection,[10]; [22],22.2 g and 20.4 g
same,Animal body weight at day 11 post injection,[10]; [22],22.5 g and 21.1 g
same,Animal body weight at day 1 post injection,[10]; [23],20.0 g and 21.8 g
same,Animal body weight at day 2 post injection,[10]; [23],20.6 g and 22.4 g
same,Animal body weight at day 1 post injection,[10]; [24],19.9 g and 20.8 g
same,Animal body weight at day 2 post injection,[10]; [24],20.1 g and 21.1 g
same,Animal body weight at day 3 post injection,[10]; [24],19.3 g and 20.6 g (2×) and 21.4 g and 21.9 g
same,outcome after injection,"[10]; inj. dose 90 mg/kg, single i.v., individual mice",died 1-2 min after injection
same,outcome after injection,"[10]; inj. dose 100 mg/kg, single i.v., individual mice",died 1-2 min after injection
same,"weight loss during treatment, % of pre-treatment value",50 mg/kg per injection (free: permanent; liposomal: transient),about 6%
same,condition after drug injection,"50 mg/kg, for about one hour after injection",temporary morbidity
same,"CPT-11, % carboxylate",[11]; 2 h,35.2 ± 1.9%
same,"CPT-11, % lactone",[11]; 2 h,1.9 ± 0.4%
same,"SN-38, % carboxylate",[11]; 2 h,58.4 ± 2.1%
same,"SN-38, % lactone",[11]; 2 h,4.4 ± 0.1%
same,"CPT-11, % carboxylate",[11]; 12 h,11.5 ± 0.9%
same,"CPT-11, % lactone",[11]; 12 h,<0.1%
same,"SN-38, % carboxylate",[11]; 12 h,78.6 ± 1.3%
same,"SN-38, % lactone",[11]; 12 h,9.9 ± 0.8%
same,"CPT-11, % carboxylate",[11]; 24 h,<0.1%
same,"CPT-11, % lactone",[11]; 24 h,<0.1%
same,"SN-38, % carboxylate",[11]; 24 h,77.5 ± 9.8%
"CC[C@@]1(O)C(=O)OCc2c1cc1n(c2=O)Cc2cc3c(CN(C)C)c(O)ccc3nc2-1 [free Topotecan, Topotecan Hydrochloride]","Drug, % of injected dose",[12],less than 1%
same,"transient decrease in body weight, % of the pre-treatment value",[13],about 15%
same,AUC∞,[14]; [25],2.8 µg·days/g
same,CL,[14]; [25],3.6 g/day
same,persistence in brain tissue post CED (detected as long as / completely cleared within),"[14]; rat brain, CED",≤ 1 days
same,survival / anti-tumor effect,[15],no survival benefits
same,IC50,SKBr-3 cells,> 30 µg/mL
same,MRT,in vivo [16],2.4 h
same,half-life,in vivo [16],144 min
same,MTD at 3 once-a-week injections,[17],18.4 mg/kg
same,MTD at 10 days,[17],11.7 to 21 mg/kg
"CC[C@]1(O)C[C@H]2CN(CCc3c([nH]c4ccccc34)[C@@](C(=O)OC)(c3cc4c(cc3OC)N(C=O)[C@H]3[C@@](O)(C(=O)OC)[C@H](OC(C)=O)[C@]5(CC)C=CCN6CC[C@]43[C@@H]65)C2)C1 [free VCR, vincristine sulfate]",comparative efficacy,[18],less effective than either F5-ILs-VCR or Ls-VCR-Cit
"CCC1=C[C@@H]2CN(C1)Cc1c([nH]c3ccccc13)[C@@](C(=O)OC)(c1cc3c(cc1OC)N(C)[C@H]1[C@@](O)(C(=O)OC)[C@H](OC(C)=O)[C@]4(CC)C=CCN5CC[C@]31[C@@H]54)C2.O=C(O)C(O)C(O)C(=O)O.O=C(O)C(O)C(O)C(=O)O [free VRB, vinorelbine bitartrate]",effect on tumor growth,[19],the tumors always continued to grow
same,IC50,[20],1.2 µg/mL
c1c[nH]cn1 [imidazole],pKa,[4],7.03
CC(C)(C)N [tert-butylamine],pKa,[4],10.68
triethylammonium sulfate,LD50 relative to the LD50 of doxorubicin,[21],about 40 times
